From US20120100555A1, “Synthesis And Use Of Fluorophore-Tagged Antimalarials” (priority 2009, published 2012)
pIC50: −log10 of the molar value.

Assays:
[1] = tested on: Plasmodium falciparum parasites; assay: CM-CQ accumulation with chemo-sensitizers, flow cytometry; format: cell-based; conditions: for effect of pre-treatment on CM-CQ accumulation in K1: K1 (CQ-resistant), 10 uM chemo-sensitizer 30 min, then 6 uM CM-CQ 10 hrs
Method: FIG. 8 is a graph showing the effects of chemo-sensitizers on coumarin-conjugated chloroquine (CM-CQ) accumulation in Plasmodium falciparum parasites. Data were obtained by flow cytometry.
(§1) Subsequently, 6 uM of Coumarin-Chloroquine (CM-CQ) was added to the samples for 10 hrs and left to incubate in the dark at 37° C. To ascertain the exact parasitemia of each condition, cultures in duplicate wells were stained with Hoechst just before flow cytometric analysis and fluorescence plate measurements. The proportion of CM-CQ-stained parasites was the ratio of the proportion of CM-CQ-stained infected erythrocyte culture over the proportion of Hoechst-positive erythrocytes.

[2] = tested on: Plasmodium falciparum parasites; assay: CM-CQ accumulation with chemo-sensitizers, fluorescent plate reader; format: cell-based; conditions: for effect of pre-treatment on CM-CQ accumulation in K1: K1 (CQ-resistant), 10 uM chemo-sensitizer 30 min, then 6 uM CM-CQ 10 hrs
Method: FIG. 9 is a graph showing the effects of chemo-sensitizers on coumarin-conjugated chloroquine (CM-CQ) accumulation in Plasmodium falciparum parasites, obtained by spectrofluorometer plate readings.
as §1

[3] = tested on: P. falciparum strains 3D7 (CQ-susceptible); assay: Inhibitory concentration (IC50) determination, Hoechst staining and flow cytometry; format: cell-based, Plasmodium falciparum
Method: Parasitized cultures were incubated for 48 hours with various concentrations of the test compounds and, thereafter, parasitemia was determined using Hoechst staining and flow cytometric analyses.
(§2) Plasmodium falciparum culture. […] Parasite cultures were maintained in 75 cm^2 or 125 cm^2 flasks using malaria culture media (MCM) consisting of RPMI 1640 supplemented with 0.5% (w/v) albumax I (Invitrogen), 0.005% (w/v) hypoxanthine, 0.03% (w/v) L-glutamate, 0.25% (w/v) gentamycin and 2.5% human erythrocytes. Flasks were gassed with 3% CO2, 4% O2 and 93% N2 and incubated at 37° C. in a dark incubator. Culture medium was replenished during subculturing on alternate days. Thin Giemsa smears were made to determine parasitemia before subculture and at the start of each experiment. Sorbitol synchronization (See Lambros, C., and Vanderberg, J. P. (1979) J Parasitol 65, 418-420) was carried out weekly to select for ring-stage parasites. Saponin enrichment (See Beaumelle, B. D., et al., (1987) J. Parasitol 73, 743-748) was carried out prior to staining with CaspaTag to liberate the parasites from host erythrocytes. Cultures of approximately 10% parasitemia were used, with parasites being in the late-ring stage (22-26 hours post-invasion) during the administration of inhibitor and drugs unless otherwise stated.
Inhibitory concentration (IC50) determination. […] To determine parasitemia, cultures were stained with Hoechst 33342, as described above, and analyzed by flow cytometry.
(§3) Flow Cytometric Analyses. Cell numbers and fluorescence intensity after staining with JC-1 were assayed by a flow cytometer (DAKO Cytomation Cyan ADP), equipped with an argon-ion laser tuned to 488 nm and a violet laser tuned to 405 nm. Green and red fluorescence was detected using 525 and 595 nm band-pass filters respectively. The flow cytometer was adjusted for forward and side scattering to accommodate infected erythrocytes. Between 10,000 to 20,000 infected erythrocytes or enriched parasites were analyzed from each sample and its respective duplicate to ensure reliability. At least three independent experiments were performed unless otherwise stated.

[4] = tested on: P. falciparum, 3D7; assay: Mitochondria trans-membrane potential assay (JC-1); format: cell-based, Plasmodium falciparum
Method: as §2, with “Cultures of approximately 10% parasitemia were used, with parasites being in the late-ring stage (22-26 hours post-invasion) during the administration of inhibitor and drugs unless otherwise stated.” left out
as §3, with “The flow cytometer was adjusted for forward and side scattering to accommodate infected erythrocytes.” left out, “At least three independent experiments were performed unless otherwise stated.” left out

[5] = tested on: P. falciparum, 3D7; conditions: low nanomolar concentrations of CQ, 8 hours
Method: as §2

[6] = 3D7, 48 hours, at the tested concentrations

SMILES	effect of pre-treatment on CM-CQ accumulation in K1 [1]	effect of pre-treatment on CM-CQ accumulation in K1 [2]	other results
CC(C)NCC(O)COc1cccc2ccccc12 (centres unmarked) [PPL, propranolol]	not	not	–
CN(C)c1ccc2c(CC(=O)O)cc(=O)oc2c1 [CM, 7-dimethyl amino-4-coumarinacetic acid]	–	–	cytotoxicity [3, 6]: not cytotoxic; inhibitory effect on parasitemia [3, 6]: no detectable inhibitory effect
CC(CN1c2ccccc2Sc2ccccc21)N(C)C (centres unmarked) [PMZ, promethazine]	significantly increased	increase was also detected	–
CNCCCN1c2ccccc2CCc2ccccc21 [DSP, desipramine]	significantly increased	significantly increased	–
COc1ccc([C@@H]2Sc3ccccc3N(CCN(C)C)C(=O)[C@@H]2OC(C)=O)cc1 [DTZ, diltiazem]	not	not	–
COc1ccc(CCN(C)CCCC(C#N)(c2ccc(OC)c(OC)c2)C(C)C)cc1OC (centres unmarked) [VPM, verapamil]	significantly increased	significantly increased	–
CCN(CCCCNc1ccnc2cc(Cl)ccc12)CC(=O)NCCNC(=O)Cc1cc(=O)oc2cc(N(C)C)ccc12 [CM-CQ]	–	–	activity compared to chloroquine (FIG. 2) ([3]; 3D7): activity comparable to chloroquine; pIC50 ([3]; Plasmodium falciparum, read-out: IC50 (50% inhibitory concentration), 3D7, ring stage, 48 hours, parasitemia by Hoechst 33342 flow cytometry): 6.46; proportion of parasites containing functional mitochondrion with transmembrane potential (ΔΨm) after treatment ([4]; JC-1 J-aggregates, dose-dependent decline from about 90% in uninduced cells): ~60%; CM-CQ accumulation, 3D7 compared to 7G8 and K1 ([1]; 6 uM CM-CQ 10 hrs, p<0.05): different levels; CM-CQ accumulation, 3D7 compared to 7G8 and K1 ([2]; 6 uM CM-CQ 10 hrs, p<0.001): different levels
CCN(CC)CCCC(C)Nc1ccnc2cc(Cl)ccc12 (centres unmarked) [CQ, Chloroquine diphosphate]	–	–	PCD features (JC-1) ([4]; low nanomolar concentrations of CQ, 8 hours): basal levels; PCD features (CaspaTag) [5]: basal levels
CN(C)CCC(c1ccc(Cl)cc1)c1ccccn1 (centres unmarked) [CPR, chlorpheneramine]	increase was also detected	significantly increased	–
CN(C)CCCN1c2ccccc2Sc2ccc(Cl)cc21 [CPZ, chlorpromazine]	significantly increased	significantly increased	–
